These results are taken from patent publication US20260102417A1, “COMPOSITIONS FOR THE TREATMENT AND PREVENTION OF CANCER” (Keyzell Holding S.L., priority 2022, published 2026).

Entries after “also recorded” stand apart in the source; their conditions may differ.

The test system of series [1] is B16F10 cells (mouse melanoma model). The experiment in a line: Mouse melanoma model: B16F10 cells subcutaneously in C57BL/6J female mice. The class given is in vivo. To be noted: FIG. 11, treatments administered for 7-9 days, 30 mg/kg per Table 2. The text has this:
For in vivo studies, the drugs fosaprepitant dimeglumine salt (CAS No 265121-04-8, Selleck Chemicals), Cerenia® (Maropitant citrate injectable solution; Zoetis US), InVivoMAb Anti-mouse CTLA-4 (CD152) (BE0032, Bio cell), InVivoMAb Anti-mouse PD-1 (CD279) (BE0146, Bio cell) and Rat IgG2a k isotype (ref BE0089) were used.
B16F10 cells (1×10^6 per mouse) were subcutaneously injected into the right flank of C57BL/6J female mice (Charles River) with matrigel (Matrigel Membrane Matrix, Corning) at 50% v/v. Tumour growth was evaluated every 2/3 days. Animal vital parameters were monitored daily. When the tumours reached an average volume of 100-150 mm^3, mice were randomised into cohorts of 6 animals and treatments were administered for 7-9 days. Groups and regimens for each experiment are described in Table 2. Animals of the control group were dosed with equal volume of vehicle. Animals were euthanized according to institutional guidelines and tumour samples were excised. Tumours were snap-frozen in OCT medium (Sakura Tissue Tek) or fixed in PFA and embedded in paraffin. Several internal organs were also excised and fixed in PFA for future studies.

Series [2] relates to cell lines of Table 1 (3LL, 4T1, B16F10, CT26WT, PTEN, RT112, MCF7 cells). The series can be described thus: MTT cell viability (cytotoxicity) assay in tumour cell lines, FIGS. 1-9. The class given is cell-based, mouse, rat and human. To be noted: cell viability after 24 hours or 48 hours. Here is the method: 21 Cell lines of three different species (mouse, rat and human) were used in this study (Table 1). All of them were maintained in culture in their respective culture media (Gibco, Thermo Fisher Scientific) supplemented with 10% fetal bovine serum (FBS) (Gibco, Thermo Fisher Scientific), 2 mM L-Glutamine (Sigma-Aldrich, Merk), and Peni-Strep (50 U/ml and […]; Gibco, Thermo Fisher Scientific) in a humidified incubator at 37° C. and 5% CO2.
The cytotoxicity of the drugs in culture was evaluated using the 3-(4,5-Dimethyl-2-thiazolyl)-2,5-diphenyl-2H-tetrazolium bromide (MTT) reduction assay. The assay assesses cell viability through the indirect measurement of the activity of reductases that convert yellow soluble MTT into purple insoluble formazan salts. As MTT can only be reduced when these enzymes are active, the reaction is used as an indicator of the cell metabolic competence and, therefore, of viability.
A variable number of cells (depending on the cell line) were seeded in 96 multi-well plates and grown during 24 Hours Cell Viability. The following day the culture medium was aspirated and fresh culture medium with the drug dissolved was added to the wells. After 24 Hours Cell Viability or 48 Hours Cell Viability cell viability was measurement by adding 10 μl of a 5 mg/ml MTT solution (M5655; Sigma-Aldrich) and 100 μl of a Hcl 0.01M-SDS 10% solution 4 hours later. After 24 Hours Cell Viability, the absorbance was measured at 595 nm, using a multi-well plate reader (iMark, Bio-rad).

Series [3] relates to osteoclastic osteosarcoma clinical stage IV. The experiment in a line: Compassionate use of aprepitant in a patient with osteosarcoma. Type of series: in vivo, human. How it is done: On Dec. 9, 2022 the patient was approved for compassionate use of aprepitant at a dose of 4200 mg orally divided into 3 doses (the total daily dose being 4200 mg) along with ifosfamide and etoposide as a fourth line of treatment. Close clinical surveillance of the patient was initiated to monitor quality of life, functional status and manifestation of adverse reactions to treatment, as well as periodic serological surveillance and measurement of response to treatment by imaging studies using the RECIST 1.1 criteria.

The subject of series [4] is a range of provoked cancers and tumours. To be noted: immunocompromised nude mice; 10-80 mg/kg per day, up to 28 days; cited from earlier work.
The test system of series [5] is osteosarcoma cell line, MG-63. To be noted: immunocompromised nude mice; injected weekly at 80 mg/kg; cited from earlier work.
[6] abbreviates: Feb. 6, 2023, aprepitant 4200 mg per day with ifosfamide and etoposide.
Where [7] appears, read: PET/CT Jan. 9, 2023, aprepitant 4200 mg per day with ifosfamide and etoposide.
[8] abbreviates: aprepitant 4200 mg per day with ifosfamide and etoposide.

In the case of `COc1ccc(C(C)(C)C)cc1CN[C@H]1C2CCN(CC2)[C@H]1C(c1ccccc1)c1ccccc1` [Maropitant], the tumoral growth result in series [1] is “reduces tumoral growth”.
`C[C@@H](O[C@H]1OCCN(Cc2nc(=O)[nH][nH]2)[C@H]1c1ccc(F)cc1)c1cc(C(F)(F)F)cc(C(F)(F)F)c1` [aprepitant, 5-[[(2R, 3S)-2-[(1R)-1-[3,5-bis(trifluoromethyl)phenyl]ethoxy]-3-(4-fluorophenyl)-4-morpholinyl]methyl]-1,2-dihydro3H-1,2,4-triazol-3-one]: in series [2], the “anti-cancer effects in vitro (cell viability, MTT)” value (shortened to “anti-cancer effects in vitro”) is “exhibited anti-cancer effects”. Moreover, in series [3] (setting [6]), the left upper nodule worked out at 21 mm; the “pulmonary nodule in left lower lobe” value came to 16.5 mm; the “pulmonary nodule in left lower nodule” value was found to be 10 mm; the “size of bilateral pulmonary nodules and masses of right predominance” value is “slight increase in the size”. Besides, in series [3] (setting [7]), the “largest of two basal nodules, left lung” value is given as 20 mm; the “nodule in the left upper lower lobe” value is given as 16 mm; the “nodules in the posterior apical segment, left lung” value is 21 mm. Besides, in series [3] (PET/CT Jan. 9, 2023, aprepitant 4200 mg per day with ifosfamide and etoposide since Dec. 9, 2022), the “diameter of solid nodule, right pleura, hilar in the middle lobe” value was 42 mm. For the same molecule, the “response according to RECIST 1.1 criteria, clinical and serological surveillance” value in series [3] (aprepitant 4200 mg per day orally in 3 doses with ifosfamide and etoposide, from Dec. 9, 2022 to Feb. 15, 2023) is “stable disease-like response”. In series [3] (setting [8]), the Karnofsky came to 70%, the “impact on the patient compared with the expected course of the disease” value was “positive impact” and the “symptomatology by the Edmonton scale” value was “no increase in symptoms”. This molecule came in with an ECOG functional status in series [3] (aprepitant 4200 mg per day with ifosfamide and etoposide, since the start of follow-up) of 1. The “EORTC QLQ-C30 overall score (quality of life)” value in series [3] (aprepitant 4200 mg per day with ifosfamide and etoposide, since the start of therapy) came out at 50%. Further, in series [3] (aprepitant 4200 mg per day with ifosfamide and etoposide, with supportive treatment), the tolerance entry is “adequate tolerance”. The “effect on tumour size / growth” value in series [4] was “somewhat effective; also recorded: slows the growth of the tumours without any net reduction in the tumour sizes”.
Turning to `CNC[C@H](O)[C@@H](O)[C@H](O)[C@H](O)CO.CNC[C@H](O)[C@@H](O)[C@H](O)[C@H](O)CO.C[C@@H](O[C@H]1OCCN(Cc2nc(=O)n(P(=O)(O)O)[nH]2)[C@H]1c1ccc(F)cc1)c1cc(C(F)(F)F)cc(C(F)(F)F)c1` [fosaprepitant-dimeglumine, 1-Deoxy-1-(methylamino)-D-glucitol[3-[[(2R,3S)-2-[(1R)-1-[3,5-bis(trifluoromethyl)phenyl]ethoxy]-3-(4-fluorophenyl)-4-morpholinyl]methyl]-2,5-dihydro-5-oxo-1H-1,2,4 triazol-1-yl]phosphonate (2:1) (salt)], the tumoral growth result in series [1] is given as “reduces tumoral growth”.
For `Cc1ccccc1-c1cc(N2CCN(C)CC2)ncc1N(C)C(=O)C(C)(C)c1cc(C(F)(F)F)cc(C(F)(F)F)c1` [netupitant], in series [2], the “anti-cancer effects in vitro” value is listed as “exhibited anti-cancer effects”.
Take `C[C@@H](O[C@H]1OCCN(Cc2nc(O)n(P(=O)(O)O)n2)[C@H]1c1ccc(F)cc1)c1cc(C(F)(F)F)cc(C(F)(F)F)c1` [fosaprepitant]: the “anti-cancer effects in vitro” value in series [2] is reported as “exhibited anti-cancer effects”. The “therapeutic efficacy against MG-63 xenograft” value in series [5] is “some therapeutic efficacy”.
